Toxic doses and inconclusive results are not listed. No stated cut-off is given here; in the data, active means T/C of 150% or more; inactive means T/C below 125%.
System: L1210 leukemia ip in BDF1 mice, survival T/C
Assay: NCI In Vivo Anticancer Drug Screen. Data for tumor model L1210 Leukemia (intraperitoneal) in B6D2F1 (BDF1) mice
Conditions: endpoint: mean survival time, higher = longer survival
How it was run: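 Survival endpoint. Drug-treated group vs vehicle group, expressed as T divided by C. Tumor passaged by transplantation.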

[1] = dose: 50.0 mg/kg/injection, schedule: Q04DX003 (ip), vehicle: Klucel (hydroxypropylcellulose) (HPC)
[2] = dose: 100.0 mg/kg/injection, schedule: Q04DX003 (ip), vehicle: Klucel (hydroxypropylcellulose) (HPC)
[3] = dose: 200.0 mg/kg/injection, schedule: Q04DX003 (ip), vehicle: Klucel (hydroxypropylcellulose) (HPC)
[4] = dose: 100.0 mg/kg/injection, schedule: Q04DX003 (ip), vehicle: saline with Tween-80
[5] = dose: 200.0 mg/kg/injection, schedule: Q04DX003 (ip), vehicle: saline with Tween-80
[6] = dose: 100.0 mg/kg/injection, schedule: Q01DX009 (ip), vehicle: saline with Tween-80
[7] = dose: 200.0 mg/kg/injection, schedule: Q01DX009 (ip), vehicle: saline with Tween-80
[8] = dose: 400.0 mg/kg/injection, schedule: Q01DX009 (ip), vehicle: saline with Tween-80
[9] = dose: 400.0 mg/kg/injection, schedule: Q04DX003 (ip), vehicle: saline with Tween-80
[10] = dose: 100.0 mg/kg/injection, schedule: Q04DX002 (ip), vehicle: Klucel (hydroxypropylcellulose) (HPC)
[11] = dose: 200.0 mg/kg/injection, schedule: Q04DX002 (ip), vehicle: Klucel (hydroxypropylcellulose) (HPC)
[12] = dose: 400.0 mg/kg/injection, schedule: Q04DX002 (ip), vehicle: Klucel (hydroxypropylcellulose) (HPC)

Measured: T/C

CC(C)(C)OC(=O)NNC(=O)c1ccc([N+](=O)[O-])cc1
inactive: dose: 4.12 mg/kg/injection, schedule: Q01DX009 (ip), vehicle: Klucel (hydroxypropylcellulose) (HPC) 118 % of control | dose: 4.12 mg/kg/injection, schedule: Q01DX009 (ip), vehicle: saline 92 % of control | dose: 6.25 mg/kg/injection, schedule: Q01DX009 (ip), vehicle: Klucel (hydroxypropylcellulose) (HPC) 124 % of control | dose: 6.25 mg/kg/injection, schedule: Q01DX009 (ip), vehicle: saline 96 % of control | dose: 9.37 mg/kg/injection, schedule: Q01DX009 (ip), vehicle: Klucel (hydroxypropylcellulose) (HPC) 100 % of control | dose: 9.37 mg/kg/injection, schedule: Q01DX009 (ip), vehicle: saline 94 % of control | dose: 35.0 mg/kg/injection, schedule: Q01DX009 (ip), vehicle: saline 121 % of control | [1] 96 % of control | dose: 55.0 mg/kg/injection, schedule: Q01DX009 (ip), vehicle: saline 102 % of control | dose: 80.0 mg/kg/injection, schedule: Q01DX009 (ip), vehicle: saline 105 % of control | dose: 100.0 mg/kg/injection, schedule: Q01DX001 (ip), vehicle: other 102 % of control | [2] 93 % of control | dose: 120.0 mg/kg/injection, schedule: Q01DX009 (ip), vehicle: Klucel (hydroxypropylcellulose) (HPC) 92 % of control | dose: 180.0 mg/kg/injection, schedule: Q01DX009 (ip), vehicle: Klucel (hydroxypropylcellulose) (HPC) 97 % of control | dose: 200.0 mg/kg/injection, schedule: Q01DX001 (ip), vehicle: other 95 % of control | [3] 91 % of control

Nc1ccc2c(c1)sc1ccccc12
inactive: [4] 88 % of control | [5] 91 % of control

CCCCCN(CCCCC)C(=S)[S-].CCCCCN(CCCCC)C(=S)[S-].[Zn]
inactive: dose: 100.0 mg/kg/injection, schedule: Q04DX003 (ip), vehicle: carboxymethylcellulose (CMC) 94 % of control | dose: 200.0 mg/kg/injection, schedule: Q04DX003 (ip), vehicle: carboxymethylcellulose (CMC) 100 % of control | dose: 400.0 mg/kg/injection, schedule: Q04DX003 (ip), vehicle: carboxymethylcellulose (CMC) 91 % of control

CC1(C)CCc2ccccc2C1
inactive: dose: 50.0 mg/kg/injection, schedule: Q01DX009 (ip), vehicle: saline with Tween-80 104 % of control | [6] 96 % of control

N#CCNC(=O)c1ccccc1
inactive: dose: 12.5 mg/kg/injection, schedule: Q01DX009 (ip), vehicle: Klucel (hydroxypropylcellulose) (HPC) 101 % of control | dose: 25.0 mg/kg/injection, schedule: Q01DX009 (ip), vehicle: Klucel (hydroxypropylcellulose) (HPC) 104 % of control | dose: 25.0 mg/kg/injection, schedule: Q04DX003 (ip), vehicle: Klucel (hydroxypropylcellulose) (HPC) 98 % of control | dose: 50.0 mg/kg/injection, schedule: Q01DX009 (ip), vehicle: Klucel (hydroxypropylcellulose) (HPC) 102 % of control | [1] 98 % of control

C#CC1(OCC2CN(c3ccccc3)C(=O)O2)CCCCC1 (stereo not drawn)
inactive: [6] 106 % of control | [4] 97 % of control | [7] 108 % of control | [5] 105 % of control | [8] 108 % of control | [9] 92 % of control

c1ccc2c(c1)CCC1=C2CCCC1
inactive: [6] 96 % of control | [4] 101 % of control | [7] 98 % of control | [5] 89 % of control | [8] 91 % of control | [9] 92 % of control

O=C(NC(=S)Nc1ccccc1)c1ccc([N+](=O)[O-])cc1
inactive: dose: 75.0 mg/kg/injection, schedule: Q01DX001 (ip), vehicle: carboxymethylcellulose (CMC) 98 % of control | dose: 150.0 mg/kg/injection, schedule: Q01DX001 (ip), vehicle: carboxymethylcellulose (CMC) 90 % of control | dose: 300.0 mg/kg/injection, schedule: Q01DX001 (ip), vehicle: carboxymethylcellulose (CMC) 101 % of control

c1ccc(C2CC2NC2=NCCO2)cc1 (stereo not drawn)
inactive: dose: 12.5 mg/kg/injection, schedule: Q04DX002 (ip), vehicle: saline with Tween-80 104 % of control | dose: 25.0 mg/kg/injection, schedule: Q04DX002 (ip), vehicle: saline with Tween-80 101 % of control | dose: 50.0 mg/kg/injection, schedule: Q04DX002 (ip), vehicle: saline with Tween-80 96 % of control | dose: 100.0 mg/kg/injection, schedule: Q04DX002 (ip), vehicle: saline with Tween-80 93 % of control

COC1OC(CN(CCCl)C(C)=O)C2OC(C)(C)OC12 (stereo not drawn)
inactive: dose: 50.0 mg/kg/injection, schedule: Q04DX003 (ip), vehicle: saline 96 % of control | dose: 100.0 mg/kg/injection, schedule: Q04DX003 (ip), vehicle: saline 94 % of control | dose: 200.0 mg/kg/injection, schedule: Q04DX003 (ip), vehicle: saline 92 % of control | dose: 400.0 mg/kg/injection, schedule: Q04DX003 (ip), vehicle: saline 100 % of control

O=C(Nc1ccc(CCC2=NCCN2)cc1)c1ccc(C(=O)Nc2ccc(CCC3=NCCN3)cc2)cc1
inactive: dose: 30.0 mg/kg/injection, schedule: Q01DX Z (oral), vehicle: saline 101 % of control | dose: 60.0 mg/kg/injection, schedule: Q01DX Z (oral), vehicle: saline 103 % of control | dose: 120.0 mg/kg/injection, schedule: Q01DX Z (oral), vehicle: saline 106 % of control | dose: 240.0 mg/kg/injection, schedule: Q01DX Z (oral), vehicle: saline 97 % of control

N#Cc1cc2ccccc2n(O)c1=N
inactive: dose: 75.0 mg/kg/injection, schedule: Q04DX003 (ip), vehicle: saline 93 % of control | dose: 150.0 mg/kg/injection, schedule: Q04DX003 (ip), vehicle: saline 109 % of control | dose: 300.0 mg/kg/injection, schedule: Q04DX003 (ip), vehicle: saline 107 % of control

CC(=O)Nc1ccc(S(=O)(=O)F)cc1C
inactive: dose: 100.0 mg/kg/injection, schedule: Q01DX009 (ip), vehicle: Klucel (hydroxypropylcellulose) (HPC) 98 % of control | dose: 200.0 mg/kg/injection, schedule: Q01DX009 (ip), vehicle: Klucel (hydroxypropylcellulose) (HPC) 95 % of control

CC1(C)Cc2ccccc2C(c2nccc3ccccc23)=N1
inactive: [2] 106 % of control | [3] 118 % of control | dose: 400.0 mg/kg/injection, schedule: Q04DX003 (ip), vehicle: Klucel (hydroxypropylcellulose) (HPC) 102 % of control

CCCCCCCCCCCCCCCCOc1ccc(F)cc1F
inactive: [10] 118 % of control | [11] 96 % of control | [12] 96 % of control

CC[Si](CC)(CC)N1CC1
inactive: dose: 12.5 mg/kg/injection, schedule: Q01DX001 (ip), vehicle: carboxymethylcellulose (CMC) 106 % of control | dose: 25.0 mg/kg/injection, schedule: Q01DX001 (ip), vehicle: carboxymethylcellulose (CMC) 92 % of control | dose: 50.0 mg/kg/injection, schedule: Q01DX001 (ip), vehicle: carboxymethylcellulose (CMC) 92 % of control

CCOC(=O)c1cnc(SC)nc1Nc1cc(Cl)cc(Cl)c1
inactive: [4] 89 % of control | [5] 87 % of control | [9] 91 % of control

O=C(Nc1ccc(C2=NCCN2)cc1)c1ccc(-c2ccc(C(=O)Nc3ccc(C4=NCCN4)cc3)cc2)cc1
inactive: dose: 111.0 mg/kg/injection, schedule: Q01DX Z (ip), vehicle: carboxymethylcellulose (CMC) 105 % of control | dose: 166.0 mg/kg/injection, schedule: Q01DX Z (ip), vehicle: carboxymethylcellulose (CMC) 101 % of control | dose: 250.0 mg/kg/injection, schedule: Q01DX Z (ip), vehicle: carboxymethylcellulose (CMC) 106 % of control | dose: 375.0 mg/kg/injection, schedule: Q01DX Z (ip), vehicle: carboxymethylcellulose (CMC) 109 % of control

OC(C[n+]1ccccc1)c1c[nH]c2ccccc12 (stereo not drawn)
inactive: dose: 75.0 mg/kg/injection, schedule: Q01DX001 (ip), vehicle: other 107 % of control

O=C(O)c1ccc(NC(=O)c2ccc(C(=O)Nc3ccc(C(=O)O)cc3)cc2)cc1
inactive: dose: 15.0 mg/kg/injection, schedule: Q01DX Z (ip), vehicle: methylcellulose (MC) 101 % of control | dose: 60.0 mg/kg/injection, schedule: Q01DX Z (ip), vehicle: methylcellulose (MC) 98 % of control | dose: 120.0 mg/kg/injection, schedule: Q01DX Z (ip), vehicle: methylcellulose (MC) 95 % of control

C=C/C=N/Nc1ccc([N+](=O)[O-])cc1
inactive: [10] 98 % of control | [11] 92 % of control | [12] 95 % of control
